One assay deals with T1, F508del-CFTR (Homo sapiens, UniProt P13569, DEL508-508).
T1 construct: host or cells: CF patients
As to conditions: patients having F508del-CFTR class II mutation (Flume et al., 2012); cited from earlier work.

Assay [1] concerns the target T2, HEK293 wild type CFTR membrane fractions (Homo sapiens, UniProt P13569).
T2 construct: expressed in transfected cells; host or cells: HEK293 (membrane fractions)
Put plainly: Back-Scattering Interferometry (Molecular Sensing) binding to CFTR membrane fractions. As to the method:
TruBind™ Back-Scattering Interferometry (BSI) (Molecular Sensing GmbH) can be used to determine binding constants of different compounds to CFTR-expressing cells.
HEK293 wild type CFTR and HEK293 control membrane fractions are used as 100 μg (total protein amount) aliquots in 50 mM Tris-HCl pH 7.5, 1 mM EDTA, 10% Glycerol+PIC and stored at −80° C.
The buffer used for the assays is 50 mM Tris-HCl pH 7.5, 1 mM EDTA with 1.2% DMSO. The refractive index of the assay buffer and the compound are matched and then a 2x serial dilution is done in polypropylene dilution reservoirs.
A thawed aliquot of HEK293.CFTRwt as well as a thawed aliquot of HEK293 control membrane fractions is diluted to 10 mL in 50 mM Tris-HCl pH 7.5, 1 mM EDTA with 1.2% DMSO. The refractive index of the assay buffer and the two membrane fractions are matched by adding water to the membrane fractions.
Compound and target are mixed 1:1 in 96-well PCR microtiter plates to a final volume of 150 μL and heat sealed with foil. The assays are allowed to incubate at room temperature for 4 hours before being run on the BSI instrument. Wells are pierced individually prior to sample injection and measurement of BSI signal (each well is analyzed in quadruplicates). […]
The final data for the difference curve is exported to Graphpad Prism® and analyzed using a one-site binding equation to determine a Kd for the assay. […]

A further assay has as its system CFTR. As to conditions: patients with CF (Wilschanski et al., 2003); cited from earlier work.

Usually Kd stands for the equilibrium constant for the complex coming apart. A lower Kd goes with tighter binding.

T2 sequence (P13569 whole entry): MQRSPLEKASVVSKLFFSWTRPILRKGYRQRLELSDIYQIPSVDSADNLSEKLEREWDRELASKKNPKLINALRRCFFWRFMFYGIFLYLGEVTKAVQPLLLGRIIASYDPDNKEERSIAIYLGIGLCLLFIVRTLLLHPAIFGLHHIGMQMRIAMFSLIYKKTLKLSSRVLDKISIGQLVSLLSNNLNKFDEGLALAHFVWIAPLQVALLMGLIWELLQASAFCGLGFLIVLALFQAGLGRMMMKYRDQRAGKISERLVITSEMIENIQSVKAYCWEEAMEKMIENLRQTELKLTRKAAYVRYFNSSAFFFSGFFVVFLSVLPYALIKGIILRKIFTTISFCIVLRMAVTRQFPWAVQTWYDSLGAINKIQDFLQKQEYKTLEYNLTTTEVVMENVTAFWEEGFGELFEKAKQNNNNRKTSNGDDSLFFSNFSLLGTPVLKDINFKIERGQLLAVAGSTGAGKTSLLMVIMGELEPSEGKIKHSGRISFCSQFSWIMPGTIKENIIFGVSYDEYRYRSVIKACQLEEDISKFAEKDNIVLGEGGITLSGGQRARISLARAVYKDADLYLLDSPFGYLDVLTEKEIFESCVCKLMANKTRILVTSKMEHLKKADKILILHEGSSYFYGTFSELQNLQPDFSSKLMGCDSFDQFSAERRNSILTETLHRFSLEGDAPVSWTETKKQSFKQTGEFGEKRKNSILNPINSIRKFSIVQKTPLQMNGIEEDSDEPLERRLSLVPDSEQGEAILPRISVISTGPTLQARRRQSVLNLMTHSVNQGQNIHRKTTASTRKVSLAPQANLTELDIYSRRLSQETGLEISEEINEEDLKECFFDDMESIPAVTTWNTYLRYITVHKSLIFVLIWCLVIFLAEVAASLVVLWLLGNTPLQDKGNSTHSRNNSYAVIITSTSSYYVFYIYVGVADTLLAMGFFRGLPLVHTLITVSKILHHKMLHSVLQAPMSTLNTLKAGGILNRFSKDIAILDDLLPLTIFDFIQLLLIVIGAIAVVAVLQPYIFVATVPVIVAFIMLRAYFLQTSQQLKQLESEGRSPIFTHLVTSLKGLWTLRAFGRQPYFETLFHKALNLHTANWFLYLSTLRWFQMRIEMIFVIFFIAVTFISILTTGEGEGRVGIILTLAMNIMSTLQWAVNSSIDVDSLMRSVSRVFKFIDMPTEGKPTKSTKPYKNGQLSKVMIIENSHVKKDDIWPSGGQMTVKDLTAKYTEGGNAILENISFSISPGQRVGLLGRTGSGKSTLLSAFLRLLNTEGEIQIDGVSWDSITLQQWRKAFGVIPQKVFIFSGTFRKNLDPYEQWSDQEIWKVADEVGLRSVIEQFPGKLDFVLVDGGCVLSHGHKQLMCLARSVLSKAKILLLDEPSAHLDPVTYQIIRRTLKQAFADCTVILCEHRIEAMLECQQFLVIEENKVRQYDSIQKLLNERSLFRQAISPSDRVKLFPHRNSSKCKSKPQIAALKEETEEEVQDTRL
T1 sequence (P13569 with tags, fused parts or gaps DEL508-508): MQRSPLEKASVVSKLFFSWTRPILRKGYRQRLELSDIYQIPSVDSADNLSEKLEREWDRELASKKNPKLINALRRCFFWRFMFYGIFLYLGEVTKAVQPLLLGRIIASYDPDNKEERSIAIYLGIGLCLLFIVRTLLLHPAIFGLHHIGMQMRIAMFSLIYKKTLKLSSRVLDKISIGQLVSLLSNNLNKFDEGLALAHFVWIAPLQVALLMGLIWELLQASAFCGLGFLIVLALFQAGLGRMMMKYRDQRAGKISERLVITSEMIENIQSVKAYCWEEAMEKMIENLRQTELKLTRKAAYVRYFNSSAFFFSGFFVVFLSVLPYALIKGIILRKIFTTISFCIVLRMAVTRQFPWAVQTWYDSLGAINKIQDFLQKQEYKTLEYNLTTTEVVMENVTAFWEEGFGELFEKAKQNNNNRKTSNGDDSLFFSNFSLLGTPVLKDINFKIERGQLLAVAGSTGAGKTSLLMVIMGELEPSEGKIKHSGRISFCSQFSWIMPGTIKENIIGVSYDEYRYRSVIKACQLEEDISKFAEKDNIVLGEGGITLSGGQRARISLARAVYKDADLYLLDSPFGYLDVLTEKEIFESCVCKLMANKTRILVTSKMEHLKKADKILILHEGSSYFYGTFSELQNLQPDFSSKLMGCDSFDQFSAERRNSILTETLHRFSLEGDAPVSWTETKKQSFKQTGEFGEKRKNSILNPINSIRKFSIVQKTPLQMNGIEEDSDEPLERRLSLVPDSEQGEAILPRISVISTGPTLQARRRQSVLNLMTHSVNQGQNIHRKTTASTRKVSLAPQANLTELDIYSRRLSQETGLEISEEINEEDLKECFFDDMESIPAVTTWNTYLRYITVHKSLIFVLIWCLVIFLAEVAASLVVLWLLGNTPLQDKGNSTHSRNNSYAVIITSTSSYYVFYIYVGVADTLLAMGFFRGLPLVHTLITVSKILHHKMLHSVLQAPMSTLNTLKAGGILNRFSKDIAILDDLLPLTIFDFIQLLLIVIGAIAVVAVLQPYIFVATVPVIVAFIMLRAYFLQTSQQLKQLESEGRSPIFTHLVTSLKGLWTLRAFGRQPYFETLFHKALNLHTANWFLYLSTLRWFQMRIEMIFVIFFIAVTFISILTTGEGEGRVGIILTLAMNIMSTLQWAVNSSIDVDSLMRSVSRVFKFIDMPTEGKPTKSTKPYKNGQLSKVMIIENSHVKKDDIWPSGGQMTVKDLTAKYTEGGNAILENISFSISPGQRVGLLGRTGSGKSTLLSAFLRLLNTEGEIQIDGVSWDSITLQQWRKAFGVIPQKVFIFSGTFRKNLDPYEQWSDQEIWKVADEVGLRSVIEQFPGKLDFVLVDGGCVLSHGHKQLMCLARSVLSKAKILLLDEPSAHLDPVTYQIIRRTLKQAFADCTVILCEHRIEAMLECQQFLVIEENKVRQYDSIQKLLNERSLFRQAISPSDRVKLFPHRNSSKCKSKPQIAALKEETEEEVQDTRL

For the compound `CC(C)(C)c1cc(C(C)(C)C)c(NC(=O)c2c[nH]c3ccccc3c2=O)cc1O` [VX-770], at F508del-CFTR, the “therapeutic efficacy in patients” value is “no significant therapeutic efficacy”. For the compound `COc1ccc2c(c1)O[C@@H](c1ccc(C(=O)O)cc1)C[C@H]2NC(=O)C1(c2ccc3c(c2)OC(F)(F)O3)CC1` [C1], the Kd in assay [1] (binding to wild-type CFTR membrane fractions, control membrane fractions subtracted, one-site binding fit) came out at 0.0947 ± 0.0265 µM. Moreover, the “binding affinity to the membrane fraction of CFTR (in words)” value in assay [1] (comment on Table 1) is listed as “binding affinity similar to the known correctors acting on CFTR”. For the compound gentamicin, in the assay with CFTR, the “change in Nasal Potential Difference (NPD) values” was “small changes”.
